Source: ChEMBL document CHEMBL3507680, “University of Dundee, Gates Library screen for HepG2 cell viability”

Experiment: Human HepG2 cell viability assay in 384 well format
Format: toxicity, cell-based
Design: dose 125 nL, time 70.5 hour; concentration not given beside the values
Conditions: HepG2 cells, read-out: Inhibition

| SMILES | cytotoxicity at 70.5 h |
| --- | --- |
| CC(C)CC(=O)N1CC[C@@H]2[C@H](CC1)N(S(C)(=O)=O)CCS2(=O)=O | -4.28% |
| O=C(N[C@@H]1CN(Cc2ccc3c(c2)OCO3)[C@@H]2CCCO[C@@H]21)C1CC1 | 8.84% |
| O=C(c1cnccn1)N1CCN(Cc2ccncc2)c2ncccc2C1 | -5.23% |
| Cc1oncc1C(=O)N1CCC2(C1)CN(c1cccnc1)C(=O)CN2C (configuration not stated) | -0.201% |
| O=C(N[C@@H]1CN(Cc2ccsc2)[C@@H]2CCCO[C@@H]21)C1CC1 | 9.03% |
| COCCNC(=O)c1cc2c(s1)CCN2C(=O)c1ccccc1 | 6.46% |
| O=C(NCc1ccco1)[C@H]1C[C@H]2OCC[C@H]2N(C(=O)c2ccco2)C1 | -8.55% |
| COC(=O)CCC(=O)N1CCC2(CN(Cc3cccc(F)c3)C2)C1 | 0.281% |
| CC(C)Nc1nc(N2CCCC2)nc2c1CN(C(C)C)CC2 | 0.846% |
| CC(C)NC(=O)C1CN(C(N)=O)Cc2ccnn2C1 (configuration not stated) | -17.9% |
| CN(Cc1ccccn1)C(=O)[C@]12COC[C@H]1CN(Cc1cnn(C)c1)C2 | -15.4% |
| Cn1cc(CN2CCCn3cnc(COCC4CC4)c3C2)cn1 | -12.6% |
| Cc1cnc(N2C[C@H]3C[C@H](C(=O)N(C)C)[C@@H](C2)O3)nc1 | -13.5% |
| CCOCC1CN(S(C)(=O)=O)Cc2cnn(C)c21 (configuration not stated) | -11.1% |
| Cc1ccoc1C(=O)N1CCO[C@H]2[C@H](OCC3CCOCC3)CC[C@@H]21 | -15% |
| Fc1cnc(N2CCO[C@H]3CN(CC4CCC4)C[C@H]32)nc1 | -0.999% |
| CC(=O)N1CCn2c(COCc3csc(C)n3)cnc2C1C (configuration not stated) | -20.1% |
| Cc1noc(C)c1CN1CCOC2(CCCN(c3nccs3)C2)C1 (configuration not stated) | 29.8% |
| Cc1nc(N)cc(C2CCN2CCC(N)=O)n1 (configuration not stated) | -3.73% |
| CCCn1nccc1-c1nccnc1CC1CCN(C(C)=O)CC1 | -2.55% |
| CC(=O)N1CCC(Cc2nccnc2-c2ccnn2C)CC1 | -2.74% |
| CC(C)=CCCC1(C)C=Cc2c(cc(C)n(CCC(=O)O)c2=O)O1 (configuration not stated) | 4.03% |

| SMILES | cytotoxicity at 70.5 h |
| --- | --- |
| COCC(=O)N1CCCCC1c1nc(C)c2c(n1)N(C1CC1)C(=O)CC2 (configuration not stated) | -3.68% |
| O=C(CO)N1CCC(CCc2ccnc(Nc3cnccn3)c2)CC1 | -2.09% |
| CN1CCC(Cc2cc(N(C)C)ncn2)C1 (configuration not stated) | 5.25% |
| CN1CCC(CCc2ccnc(Nc3cnccn3)c2)CC1 | -4.49% |
| Cn1cc(C(=O)N2CCC(c3cc(CCO)n(C)n3)C2)cn1 (configuration not stated) | -4.36% |
| O=C(O)[C@@H]1OCC(=O)N(Cc2cccc(Cl)c2)[C@@H]1c1ccccc1 | 5.58% |
| Cc1nccc(C2CN(S(=O)(=O)N(C)C)C2)n1 | -1.63% |
| CC(=O)NC1Cc2ccc(S(=O)(=O)NCCNc3ccccn3)cc2C1 (configuration not stated) | -4.42% |
| CC(=O)Nc1nc(SCc2ccc3c(c2)OCO3)ns1 | -6.56% |
| Cc1ccnn1CCC(=O)N1CCCC[C@]2(C)NC(=O)CCC[C@H]12 | -7.45% |
| CC(C)(NC(=O)Cc1ccccc1F)C(=O)O | -4.89% |
| CNc1nccc(C2CCCCN2Cc2cnn3cccnc23)n1 (configuration not stated) | -9.3% |
| O=C(O)c1ccccc1-c1ccc(CN2CCC(CO)C2)cn1 (configuration not stated) | 15.8% |
| CN(C)S(=O)(=O)N1CCC(c2c(C(N)=O)sc3ccccc23)C1 (configuration not stated) | -3.67% |
| Cc1nc(C2CCN2c2ncccn2)cc(N(C)C)n1 (configuration not stated) | -8.86% |
| O=C(CC1CCN(c2cccnn2)CC1)NCCO | -6.47% |
| O=C(O)COc1ccc(CN2CCCC(Cc3cccnc3)C2)cc1 (configuration not stated) | -9.55% |
| CC(C)C[C@H](N)COc1cccc(F)c1Oc1ccccc1 | 19.1% |
| Cc1cnc(CCNC(=O)C2CCN(S(=O)(=O)c3ccc(F)cc3)C2)s1 (configuration not stated) | 17.8% |
| CC(=O)N1CCC(CCc2ccnc(NC(=O)c3ccccn3)c2)CC1 | 12% |
| O=C(O)c1ccccc1-c1cnc(CNC(=O)C2CCOCC2)nc1 | 14% |
| Cc1noc(C)c1CC(=O)N1CCCC(Cc2ccccn2)C1 (configuration not stated) | -7.69% |

| SMILES | cytotoxicity at 70.5 h |
| --- | --- |
| O=C(O)c1ccc(=O)n(CC(c2ccc(Cl)cc2)N2CCCCCC2)c1 (configuration not stated) | -8.13% |
| COCC(=O)N1C[C@@H](c2cccc(F)c2)[C@H]2[C@H]1CCCCCN2C(C)=O | 7.2% |
| Cc1ccnc(C2CN(c3ncccn3)C2)n1 | -12.1% |
| CC(=O)N1CCCCC[C@@H]2[C@@H]1[C@H](c1cccc(F)c1)CN2CCC(N)=O | -9.36% |
| CCC(=O)N1CCCC(C(=O)c2cnn(-c3ccc(F)cc3)c2N)C1 (configuration not stated) | -0.996% |
| CC(=O)N1CCC1c1cc(N2CC(O)C2)nc(C)n1 (configuration not stated) | -11.3% |
| CNC(=O)C1(c2cnccn2)CCCN1C(=O)Cc1ccsc1 (configuration not stated) | -6.75% |
| CC(=O)N1CCC(C(=O)c2cnn(-c3ccccc3)c2N)C1 (configuration not stated) | -7.91% |
| NCCCC(=O)NCC1(O)CCN(c2ccnc3cccnc23)C1 (configuration not stated) | -7.06% |
| O=C1CN(C(=O)C2CN(c3cccc(Cl)c3)CCO2)CCN1 (configuration not stated) | -7.93% |
| O=C1CN(C(=O)C2CN(c3ccccc3)CCO2)CCN1 (configuration not stated) | -5.72% |
| CO[C@H]1C[C@@H]2CN(C(=O)c3cc4ccc(F)cc4[nH]3)C[C@@H]2C1 | -6.74% |
| Fc1cccc(Cc2cncc(C3CCCN3C3CCOCC3)n2)c1 (configuration not stated) | -5.65% |
| CCn1c(C)nc2cc(NC(=O)CC3CCCCO3)ccc21 (configuration not stated) | -7.28% |
| Cc1nc(C2CCN(S(C)(=O)=O)CC2)nc2c1CCC(=O)N2CC(C)C | -1.36% |
| CC(=O)N1CCC1c1cc(N2CCNC(=O)C2)nc(C)n1 (configuration not stated) | -5.23% |
| O=C1CO[C@H]2CCN(C(=O)c3ccc4c(c3)CCCC4)CC[C@@H]2N1 | -8.53% |
| CCC(=O)N1CCC(c2nc(C)ncc2-c2ccncc2)CC1 | -7.07% |
| CCS(=O)(=O)N1CCC(c2nc(C)c(C)c(N3CCCC3)n2)CC1 | 2.09% |
| CCN(Cc1ccccc1O)CC1(C)Cc2c(N)nc(N)nc2O1 (configuration not stated) | -3.26% |
| CCN(Cc1ccncc1)CC1(C)Cc2c(N)nc(N)nc2O1 (configuration not stated) | -2.81% |
| O=C(O)c1ccc(=O)n(CC(c2ccc(Cl)cc2)N2CCOCC2)c1 (configuration not stated) | -6.42% |

| SMILES | cytotoxicity at 70.5 h |
| --- | --- |
| CCN(Cc1cscn1)CC1(C)Cc2c(N)nc(N)nc2O1 (configuration not stated) | 6.12% |
| CCN(CCCc1ccccc1)CC1(C)Cc2c(N)nc(N)nc2O1 (configuration not stated) | 12.9% |
| CNC(=O)c1cc(C)nc(C2(C)CCCN2c2cc(C)ncn2)n1 (configuration not stated) | -6.05% |
| CC(C)CC(=O)N1CCCC1c1cc(CO)[nH]n1 (configuration not stated) | -4.42% |
| OCC(CO)N1CCCC(Cc2cnc(Nc3ccccn3)cn2)C1 (configuration not stated) | -3.34% |
| CCC(CC)C(=O)N1CCCc2c(cnn2C)C1 | -1.89% |
| NC(=O)C1CN(c2ccc(F)cc2)CCN1 (configuration not stated) | -2.98% |
| Cc1nc(C2CCNC2)nc2c1CCC(=O)N2CC(C)C (configuration not stated) | -3.62% |
| CC(C)N1CCc2c(CN(C)Cc3ccco3)cncc2C1 | 5.22% |
| c1cncc(CN2CCC(c3ccc4c(c3)OCO4)CC2)c1 | 19.4% |
| CC1=N[C@@]2(CC[C@@H]3CN(Cc4ccccc4F)C[C@@H]32)C(=O)N1CC1CC1 | -0.339% |
| CCC1=N[C@@]2(CC[C@@H]3CN(Cc4ccccc4F)C[C@@H]32)C(=O)N1CC | -6.42% |
| O=C(NCc1ccco1)[C@@H]1CCO[C@@H]2CCN(c3ccncn3)C[C@H]21 | -2.41% |
| O=C(NCC1CCOCC1)[C@@H]1C[C@@H]2CCN(Cc3ccco3)C[C@H]2O1 | -5.42% |
| O=C(N1CCCO1)[C@@]12CCO[C@@H]1CCN(Cc1ccccc1)C2 | -5% |
| CN(C)C(=O)N[C@@H]1CN(Cc2ccc3c(c2)OCO3)[C@@H]2CCCO[C@@H]21 | 3.25% |
| CCS(=O)(=O)N1CCC[C@]2(C(=O)N(C)C)CN(c3ncccn3)C[C@@H]2C1 | 11.9% |
| O=C(c1cnccn1)N1CCOC2(CCN(Cc3ccsc3)CC2)C1 | 4.24% |
| Cn1cc(C2CC(=O)NC23CCN(CC2CC2)CC3)cn1 (configuration not stated) | 9.8% |
| Cc1ccoc1C(=O)N1CCO[C@H]2[C@H](OCCN(C)C)CC[C@@H]21 | -12.4% |
| Cc1ccc(CN2CCc3ncnc(-c4ccc(F)cc4)c3CC2)o1 | -14.6% |
| O=C(c1ccnnc1)N1CCN2C[C@H](Oc3cccc(F)c3)C[C@H]2C1 | -5.78% |

| SMILES | cytotoxicity at 70.5 h |
| --- | --- |
| c1nc(COCC2CC2)c2n1CCCN(CC1CC1)C2 | -18.3% |
| CC[C@@H]1N(CC2CC2)CCC[C@]12CCC(=O)N2CCOC | -9.87% |
| Cc1nc(COCc2cnc3n2CCN(C2CCC2)C3C)cs1 (configuration not stated) | -12.4% |
| Cc1nc(COCc2cnc3n2CCN(CC2CCC2)C3C)cs1 (configuration not stated) | -5.9% |
| Cc1ccc(CN2C[C@@H]3COC[C@@H](NS(C)(=O)=O)[C@@H]3C2)o1 | -18.3% |
| Cc1ccc(CN2CCC3(CC2)CC(c2cccnc2)CO3)s1 (configuration not stated) | 2.33% |
| CCCC(=O)N1CC[C@@H]2[C@H](CC1)N(Cc1cccnc1)CCS2(=O)=O | 4.18% |
| O=C(Nc1cccnc1)[C@H]1C[C@@H]2CCN(c3nncs3)C[C@H]2O1 | -1.35% |
| O=C(Nc1cccnc1)[C@H]1CO[C@H]2CCN(c3ncc(F)cn3)C[C@H]2C1 | 4.85% |
| CC(=O)N1CCOCC2(CN(Cc3ccccn3)CCO2)C1 (configuration not stated) | -9.92% |
| CN(Cc1cncnc1)[C@H]1CN(CC2CC2)[C@@H]2CCCO[C@@H]21 | -5.03% |
| CC1c2ncc(CNC(=O)C3CC3)n2CCN1Cc1cnn(C)c1 (configuration not stated) | -12% |
| c1ccc(OC[C@]23COC[C@H]2CN(c2ncccn2)C3)nc1 | -9.18% |
| c1cncc(OCc2nnn3c2CN(Cc2ccsc2)CCC3)c1 | -11.8% |
| O=C(NCc1ccccn1)[C@]12COC[C@H]1CN(C1CCC1)C2 | -10.3% |
| O[C@H]1CCN(Cc2ccoc2)[C@H]1Cc1cccnc1 | 30.5% |
| CC(C)N(C)Cc1nnc2n1CCN(Cc1ccncc1)CC2 | -3.24% |
| Cn1cnc2c1C(COCc1ccccc1)N(Cc1ccncc1)CC2 (configuration not stated) | -3.01% |
| CN1CCN(C[C@@H]2OC[C@H]3CN(Cc4cccc(F)c4)CC[C@H]32)CC1 | 2.68% |
